This note sets out measurements from patent US20110263651A1, “NOVEL PIPERIDINE-BUTYRAMIDE DERIVATIVES AND THEIR USE AS MONOAMINE NEUROT[…]-UPTAKE INHIBITORS” (N[…]/S, priority 2008, published 2011).

What all share (assay type): biochemical
Assay [1] concerns serotonine (5-HT) reuptake in synaptosomes. Kind of assay: Inhibition of 5-HT reuptake in synaptosomes. To be noted: 3H-5-HT, read-out: 5-HT-uptake IC50. As for the experimental part: (§1) Compounds were tested for their ability to inhibit the reuptake of the monoamine neurotransmitters dopamine (DA) noradrenaline (NA) and serotonine (5-HT) in synaptosomes as described in WO 97/16451 (NeuroSearch NS).
(§2) The test values are given as IC50 (the concentration (μM) of the test substance which inhibits the specific binding of ^3H-DA, ^3H-NA, or ^3H-5-HT by 50%).

The subject of assay [2] is dopamine (DA) reuptake in synaptosomes. As to the kind of experiment: Inhibition of DA reuptake in synaptosomes. To be noted: 3H-DA, read-out: DA-uptake IC50. As for the experimental part: as §1, §2
In assay [3] the test system is noradrenaline (NA) reuptake in synaptosomes. Kind of assay: Inhibition of NA reuptake in synaptosomes. To be noted: 3H-NA, read-out: NA-uptake IC50. The protocol:
as §1, §2

Where a name gives a salt, the structure may show the parent alone.

Turning to `CCN(C(=O)CCCC1CCN(C)CC1)c1ccc(Cl)c(Cl)c1` [Compound 4.1, N-(3,4-Dichloro-phenyl)-N-ethyl-4-(1-methyl-piperidin-4-yl)-butyramide fumaric acid salt], the IC50 (in general, the concentration needed to halve the response being measured) in assay [1] worked out at 800 nM; in assay [2], 6.9 nM; in assay [3], 12 nM.

On to `CCN(C(=O)CCCC1CCNCC1)c1ccc(Cl)c(Cl)c1` [Compound 3.1, N-(3,4-Dichloro-phenyl)-N-ethyl-4-piperidin-4-yl-butyramide fumaric acid salt], for which the IC50 was found to be 570 nM in assay [1], 12 nM in assay [2] and 30 nM in assay [3].
